In patent US10519154B2, “7-substituted 1-pyridyl-naphthyridine-3-carboxylic acid amides and use thereof” (Bayer Pharma Aktiengesellschaft, priority 2016, dated 2019):

Key:
[1] = biological target: T1, human M2 receptor (Homo sapiens, UniProt P08172); experiment: Functional M2-GIRK1/4 activation test: positive cooperativity (alpha factor); details: shift of acetylcholine dose-response curve (Allosteric EC50 shift); CHO-DUKX-M2-GIRK cells
T1 sequence (P08172 1-466): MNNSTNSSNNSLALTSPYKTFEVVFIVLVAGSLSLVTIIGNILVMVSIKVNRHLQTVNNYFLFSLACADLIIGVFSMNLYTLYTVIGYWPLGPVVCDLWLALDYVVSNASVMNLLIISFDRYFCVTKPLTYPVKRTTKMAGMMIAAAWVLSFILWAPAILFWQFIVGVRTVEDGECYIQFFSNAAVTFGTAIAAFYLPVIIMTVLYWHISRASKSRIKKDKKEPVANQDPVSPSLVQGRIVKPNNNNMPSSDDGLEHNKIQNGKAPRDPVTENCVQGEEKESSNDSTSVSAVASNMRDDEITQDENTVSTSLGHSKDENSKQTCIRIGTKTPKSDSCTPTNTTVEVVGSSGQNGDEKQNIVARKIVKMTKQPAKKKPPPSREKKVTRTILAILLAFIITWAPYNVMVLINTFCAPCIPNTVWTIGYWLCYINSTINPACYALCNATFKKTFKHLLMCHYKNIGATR
Excerpt: The binding of orthosteric agonists (endogenous ligand: acetylcholine) to the M2 receptor leads to receptor activation or a change in conformation of the receptor in the manner of a shift in equilibrium in favor of the active receptor conformation.
The agonist-induced change in conformation of the M2 receptor results in a Gαi protein activation. […] Under physiological conditions, the result is then a selective efflux of potassium from the cell along the electrochemical gradient. […] The extent of hyperpolarization can therefore be regarded as a measure of the activation of the M2 receptor.
The test cell used is a recombinant CHO-DUKX cell line which has been stably transfected with cDNA coding for the human M2 receptor and with cDNA coding for both GIRK1/4 subunits (CHO-DUKX-M2-GIRK). The transmembrane potential, or the relative changes in the transmembrane potential as a function of substance addition or M2 activation, is determined by means of a voltage-sensitive dye (FLIPR Membrane Potential Assay Kit Blue, Molecular Devices #R8034) and the measurement of cell fluorescence using a proprietary fluorescence imaging instrument.
In accordance with the desired test concentrations, the substances were pre-diluted in loading buffer (see above).
The sowing medium consisted of MEM alpha medium (supplemented with 5% FCS, 2% Glutamax, no genticin).
For the particular measurement, the medium was removed and the cells were laden with the voltage-sensitive dye for at least 6 min at room temperature (30 μl of loading buffer per 384-well). This was followed, in a first measurement, by the determination of the resting transmembrane potential for a period of 5 sec in 1 sec increments. Thereafter, 10 μl in each case of the test substances diluted in loading buffer are added, followed by a second measurement to determine the transmembrane potential for a period of 50 sec in 1 sec increments.
Finally, the cells are admixed with 10 μl of agonist solution (acetylcholine dissolved in loading buffer). In contrast to the EC50 determination of the test substances (see B-1.1), however, this is not done using one acetylcholine concentration; instead, every concentration of the test substance is combined with an acetylcholine 8-point dose-response curve. […] The M2-mediated GIRK1/4 activation or hyperpolarization is then monitored in a third measurement over a period of 60 sec in 1 sec increments. The shift in the acetylcholine dose-response curve in the presence of increasing concentrations of the test substance is analyzed and quantified by means of GraphPad PRISM (Allosteric EC50 shift). […] Positive cooperativity is the hallmark of a positive allosteric modulator. […] The greater the magnitude of the cc value, the greater the extent of cooperativity between orthosteric and allosteric.

[2] = biological target: T1, human M2 receptor; experiment: Functional M2-GIRK1/4 activation test: allosteric potency (EC50) and efficiency; details: for EC50: Receptor activity EC50, CHO-DUKX-M2-GIRK cells, acetylcholine at EC20, in some cases mean of two or more determinations; for Emax: read-out: Efficiency, boosting of the acetylcholine effect at EC20 acetylcholine concentration; for Emax / Efficiency: CHO-DUKX-M2-GIRK cells; for Efficiency: boosting of the acetylcholine effect at EC20 acetylcholine concentration

| Compound | Cooperativity (alpha factor) [1] | EC50 [2] | Emax [2] | Efficiency [2] |
| --- | --- | --- | --- | --- |
| O=C(NC(c1ccccc1Cl)C(F)(F)F)c1cn(-c2ncc(F)cc2F)c2nc(N3C[C@@H](O)CC3=O)ccc2c1=O (mixture of isomers) [Example 4, N-[1-(2-Chlorophenyl)-2,2,2-trifluoroethyl]-1-(3,5-difluoropyridin-2-yl)-7-[(4S)-4-hydroxy-2-oxopyrrolidin-1-yl]-4-oxo-1,4-dihydro-1,8-naphthyridine-3-carboxamide] | 63 | 14 nM | 98.2% |  |
| CCC(COC(F)(F)F)NC(=O)c1cn(-c2ncc(F)cc2F)c2nc(N3C[C@@H](O)CC3=O)ccc2c1=O (mixture of isomers) [Example 17, 1-(3,5-Difluoropyridin-2-yl)-7-[(4S)-4-hydroxy-2-oxopyrrolidin-1-yl]-4-oxo-N-[1-(trifluoromethoxy)butan-2-yl]-1,4-dihydro-1,8-naphthyridine-3-carboxamide] | 24 | 111 nM | 88% |  |
| CC1CC(=O)N(c2ccc3c(=O)c(C(=O)N[C@H](C4CC4)C(F)(F)F)cn(-c4ncc(F)cc4F)c3n2)C1 (mixture of isomers) [Example 27, N-[(1R)-1-Cyclopropyl-2,2,2-trifluoroethyl]-1-(3,5-difluoropyridin-2-yl)-7-[4-methyl-2-oxopyrrolidin-1-yl]-4-oxo-1,4-dihydro-1,8-naphthyridine-3-carboxamide] | 10 | 36 nM | 79% |  |
| O=C(NC(c1ccccc1Cl)C(F)(F)F)c1cn(-c2ncc(F)cc2F)c2nc(N3C[C@@H](O)CC3=O)ccc2c1=O (single isomer, unassigned) [Example 5] | 63 | 31 nM |  | 98.25% |
| CCC(COC(F)(F)F)NC(=O)c1cn(-c2ncc(F)cc2F)c2nc(N3C[C@@H](O)CC3=O)ccc2c1=O (single isomer, unassigned) [Example 18] | 34 | 67 nM | 87% |  |
| CCC(COC(F)(F)F)NC(=O)c1cn(-c2ncc(F)cc2F)c2nc(N3C[C@@H](O)CC3=O)ccc2c1=O (single isomer, unassigned) [Example 19] | 38 | 86 nM |  | 91.50% |
| CC1CC(=O)N(c2ccc3c(=O)c(C(=O)N[C@H](C4CC4)C(F)(F)F)cn(-c4ncc(F)cc4F)c3n2)C1 (single isomer, unassigned) [Example 28] | 17 | 19 nM | 100% |  |
| O=C(NC(c1ccccc1Cl)C(F)(F)F)c1cn(-c2ncc(F)cc2F)c2nc(N3C[C@@H](O)[C@H](O)C3)ccc2c1=O (single isomer, unassigned) [Example 84] | 57 | 20 nM | 100% |  |
| CC(NC(=O)c1cn(-c2ncc(F)cc2F)c2nc(N3C[C@@H](O)[C@H](O)C3)ccc2c1=O)C(F)(F)C(F)(F)F (single isomer, unassigned) [Example 90] | 41 | 24 nM |  | 100.00% |
| CCC(NC(=O)c1cn(-c2ncc(F)cc2F)c2nc(N3C[C@@H](O)CC3=O)ccc2c1=O)C(F)(F)C(F)(F)F (single isomer, unassigned) [Example 93] | 41 | 14 nM | 98% |  |
| CCC(NC(=O)c1cn(-c2ncc(F)cc2F)c2nc(N3C[C@@H](O)[C@H](O)C3)ccc2c1=O)C(F)(F)C(F)(F)F (single isomer, unassigned) [Example 97] | 53 | 38 nM |  | 96.50% |
| CC(C)(NC(=O)c1cn(-c2ncc(F)cc2F)c2nc(N3CCCC[C@@H]3CO)ccc2c1=O)C(F)(F)C(F)(F)F [Example 173, 1-(3,5-Difluoropyridin-2-yl)-7-[(2R)-2-(hydroxymethyl)piperidin-1-yl]-4-oxo-N-(3,3,4,4,4-pentafluoro-2-methylbutan-2-yl)-1,4-dihydro-1,8-naphthyridine-3-carboxamide] |  | 88 nM | 100% |  |
| CC(C)(NC(=O)c1cn(-c2ncc(F)cc2F)c2nc(N3CCC(O)(CO)CC3)ccc2c1=O)C(F)(F)C(F)(F)F [Example 174, 1-(3,5-Difluoropyridin-2-yl)-7-[4-hydroxy-4-(hydroxymethyl)piperidin-1-yl]-4-oxo-N-(3,3,4,4,4-pentafluoro-2-methylbutan-2-yl)-1,4-dihydro-1,8-naphthyridine-3-carboxamide] |  | 83 nM | 100% |  |
| O=C(NC(C(F)(F)F)C(F)(F)F)c1cn(-c2ncc(F)cc2F)c2nc(N3CCCC[C@@H]3CO)ccc2c1=O [Example 178, 1-(3,5-Difluoropyridin-2-yl)-N-(1,1,1,3,3,3-hexafluoropropan-2-yl)-7-[(2R)-2-(hydroxymethyl)piperidin-1-yl]-4-oxo-1,4-dihydro-1,8-naphthyridine-3-carboxamide] |  | 56 nM | 100% |  |
| O=C(NC(C(F)(F)F)C(F)(F)F)c1cn(-c2ncc(F)cc2F)c2nc(N3CCC(O)(CO)CC3)ccc2c1=O [Example 179] |  | 95 nM | 100% |  |
| O=C(NC(C(F)(F)F)C(F)(F)F)c1cn(-c2ncc(F)cc2F)c2nc(N3CCC[C@@H]3CO)ccc2c1=O [Example 180, 1-(3,5-Difluoropyridin-2-yl)-N-(1,1,1,3,3,3-hexafluoropropan-2-yl)-7-[(2R)-2-(hydroxymethyl)pyrrolidin-1-yl]-4-oxo-1,4-dihydro-1,8-naphthyridine-3-carboxamide] |  | 89 nM | 100% |  |
| CC(C)(NC(=O)c1cn(-c2ncc(F)cc2F)c2nc(N3CC4(COC4)C3)ccc2c1=O)C(F)(F)C(F)(F)F [Example 182, 1-(3,5-Difluoropyridin-2-yl)-7-(2-oxa-6-azaspiro[3.3]hept-6-yl)-4-oxo-N-(3,3,4,4,4-pentafluoro-2-methylbutan-2-yl)-1,4-dihydro-1,8-naphthyridine-3-carboxamide] |  | 410 nM | 100% |  |
| CC(C)(NC(=O)c1cn(-c2ncc(F)cc2F)c2nc(N3CC(CO)(CO)C3)ccc2c1=O)C(F)(F)C(F)(F)F [Example 184, 7-[3,3-Bis(hydroxymethyl)azetidin-1-yl]-1-(3,5-difluoropyridin-2-yl)-4-oxo-N-(3,3,4,4,4-pentafluoro-2-methylbutan-2-yl)-1,4-dihydro-1,8-naphthyridine-3-carboxamide] |  | 130 nM | 100% |  |
| O=C(NC(C(F)(F)F)C(F)(F)F)c1cn(-c2ncc(F)cc2F)c2nc(N3CCC(CO)(CO)CC3)ccc2c1=O [Example 186, 7-[4,4-Bis(hydroxymethyl)piperidin-1-yl]-1-(3,5-difluoropyridin-2-yl)-N-(1,1,1,3,3,3-hexafluoropropan-2-yl)-4-oxo-1,4-dihydro-1,8-naphthyridine-3-carboxamide] |  | 110 nM | 100% |  |
| CC(C)(NC(=O)c1cn(-c2ncc(F)cc2F)c2nc(N3CCC(CO)(CO)CC3)ccc2c1=O)C(F)(F)C(F)(F)F [Example 187] |  | 265 nM | 97.5% |  |
| CC(C)(NC(=O)c1cn(-c2ncc(F)cc2F)c2nc(N3CCC[C@@H]3CO)ccc2c1=O)C(F)(F)C(F)(F)F [Example 188, 1-(3,5-Difluoropyridin-2-yl)-7-[(2R)-2-(hydroxymethyl)pyrrolidin-1-yl]-4-oxo-N-(3,3,4,4,4-pentafluoro-2-methylbutan-2-yl)-1,4-dihydro-1,8-naphthyridine-3-carboxamide] |  | 118 nM | 100% |  |
